Assay results taken from patent EP0072352B1, “Benzazepin-2-ones, process for their preparation, pharmaceutical preparations containing these compounds and the compounds for therapeutical use” (CIBA-GEIGY AG, priority 1981, dated 1983).
Counter-ions that a name gives are not always drawn. Like-named read-outs stand apart in the source and are kept apart here.

How the values were obtained:
[1] = biological target: T1, Angiotensin-umwandelnde Enzym (ACE) (Oryctolagus cuniculus, UniProt P12822); assay: In vitro ACE inhibition (ACEI), rabbit lung tissue preparation, hippuryl-histidyl-leucine substrate, method of Cheung and Cushman; format: biochemical, Kaninchen
T1 construct: Es wurde ein Kaninchen-Lungengewebe-Präparat; from tissue; host or cells: lung of adult male rabbits
T1 sequence (P12822 34-1310): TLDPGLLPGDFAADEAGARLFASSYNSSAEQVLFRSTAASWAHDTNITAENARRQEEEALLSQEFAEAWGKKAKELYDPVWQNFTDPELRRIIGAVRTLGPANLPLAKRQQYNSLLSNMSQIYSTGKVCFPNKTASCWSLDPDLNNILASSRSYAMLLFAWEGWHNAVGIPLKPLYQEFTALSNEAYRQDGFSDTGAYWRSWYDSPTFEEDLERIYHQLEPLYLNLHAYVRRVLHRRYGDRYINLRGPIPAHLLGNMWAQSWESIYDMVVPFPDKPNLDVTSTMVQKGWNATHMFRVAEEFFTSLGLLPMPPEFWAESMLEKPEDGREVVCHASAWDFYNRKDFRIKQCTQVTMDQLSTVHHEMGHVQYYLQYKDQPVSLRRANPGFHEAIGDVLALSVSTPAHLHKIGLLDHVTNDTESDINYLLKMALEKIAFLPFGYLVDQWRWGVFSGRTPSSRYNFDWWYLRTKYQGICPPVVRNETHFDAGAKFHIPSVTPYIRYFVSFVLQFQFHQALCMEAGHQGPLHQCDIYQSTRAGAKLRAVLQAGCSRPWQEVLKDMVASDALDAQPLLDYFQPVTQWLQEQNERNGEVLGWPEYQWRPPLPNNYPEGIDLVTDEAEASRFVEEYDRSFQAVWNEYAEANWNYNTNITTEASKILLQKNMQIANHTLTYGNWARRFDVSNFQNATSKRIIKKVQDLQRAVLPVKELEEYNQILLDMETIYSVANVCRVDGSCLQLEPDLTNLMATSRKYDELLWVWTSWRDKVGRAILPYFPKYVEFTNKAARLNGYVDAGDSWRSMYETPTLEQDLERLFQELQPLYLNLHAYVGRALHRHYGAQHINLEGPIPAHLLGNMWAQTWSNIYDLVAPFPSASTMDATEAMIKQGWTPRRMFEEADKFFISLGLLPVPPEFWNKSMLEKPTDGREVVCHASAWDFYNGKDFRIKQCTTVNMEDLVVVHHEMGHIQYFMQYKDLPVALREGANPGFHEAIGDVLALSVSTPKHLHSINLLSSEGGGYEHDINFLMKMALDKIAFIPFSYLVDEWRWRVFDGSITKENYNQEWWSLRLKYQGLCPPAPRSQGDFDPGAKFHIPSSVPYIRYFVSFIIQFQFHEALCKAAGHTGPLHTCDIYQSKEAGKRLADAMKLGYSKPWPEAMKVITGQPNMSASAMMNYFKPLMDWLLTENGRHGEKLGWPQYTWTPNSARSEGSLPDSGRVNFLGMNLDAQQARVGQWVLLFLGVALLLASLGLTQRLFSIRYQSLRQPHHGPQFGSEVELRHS
Excerpt: Die in-vitro-Hemmung des Enzyms, welches das Angiotensin umwandelt, kann bei den Verbindungen dieser Erfindung analog zu Biochim. Biophys. Acta 293, 451 (1973) nachgewiesen werden. Gemäß dieser Methode werden die genannten Verbindungen in ungefähr 1 mMol-Konzentrationen in Phosphatpuffer aufgelöst. Zu 100 Mikroliter von Lösungen der Testverbindung in Phosphatpuffer, welche man auf die gewünschte Konzentration verdünnt, gibt man zuerst 100 Mikroliter von 5 millimolarem Hippuryl-histidylleucin in Phosphatpuffer und dann 50 µl des Angiotensin-umwandelnden Enzyms. Dieses Enzym wird aus Lungen von erwachsenen männlichen Kaninchen in Tris-Puffer, der Kalium- und Magnesiumchlorid und auch Rohrzucker enthält, hergestellt. Die genannten Lösungen werden 30 Minuten bei 37 °C inkubiert, und die weitere Reaktion wird durch Hinzufügen von 0,75 ml einer 0,6-normalen wäßrigen Natriumhydroxidlösung gestoppt. Dann gibt man bei Zimmertemperatur 100 Mikroliter einer 0,2 %-igen Lösung von o-Phthalaldehyd in Methanol und nach 10 Minuten 100 Mikroliter 6n-Chlorwasserstoffsäure dazu. Diese Proben werden in einem Spektrophotometer bei 360 nm mit Wasser verglichen, und ihre optische Dichte wird bestimmt. Diese Werte werden durch einen Konversionsfaktor einer Standard-Kurve angepaßt, wobei man die während der genannten Inkubation von 30 Minuten gebildete Histidyl-leucin-Menge in Nanomolen erhält. Die Ergebnisse werden, um den IC50-Wert zu bestimmen, gegenüber den Wirkstoff-Konzentrationen graphisch als Kurve dargestellt. Der IC50-Wert bedeutet diejenige WirkstoffKonzentration, welche die Hälfte der Aktivität einer Kontrollprobe, die keinen Wirkstoff enthält, ergibt. Als Illustration der Erfindung sei auf das « höher schmelzende 1-Carboxymethyl-3-(1-carboxy-3-phenylpro- pylamino)-2,3,4,5-tetrahydro-1H-[1]-benzazepin-2-on des Beispiels 9 und auf das entsprechende S,S-Enantiomere des Beispiels 19 hingewiesen, welche einen lC50-Wert von 5,2 × 10^-9 M bzw. 1,7 × 10^-9 M aufweisen. Das entsprechende « niedriger schmelzende » 1-Carboxymethyl-3-(1-carboxy-3-phenylpropy- iamino)-2,3,4,5-tetrahydro-1H-[1] benzazepin-2-on des Beispiels 8 zeigt einen lC50-Wert von 5,8 ×10^-8 M.
Die Prüfung der Wirkung von Verbindungen ist gemäss den Methoden für die Auswertung der Hemmung des Enzyms, welches das Angiotensin umwandelt [angiotensin converting enzyme = ACE] durchgeführt worden. In der biochemischen Beurteilung der in vitro ACE-Hemmung [ACE inhibition = A-CEI] wird die Aktivität einer Verbindung im Kaninchen-Lungengewebe bestimmt.
Es wurde ein Kaninchen-Lungengewebe-Präparat [Das and Saffer, J. Biol. Chem. 250 : 6762 (1975) für die Bestimmung von ACE nach der Methode von Cheung und Cushman [Cheung and Cushman, Biochim. Biophys. Acta 293, 451 (1973)] verwendet. In dieser Methode wird die Menge des Histidyl-leucins. welche aus einem synthetischen Substrat innerhalb einer Inkubation von 30 Minuten bei 37° freigesetzt wird, spektrophotometrisch bestimmt. Die lC50-Werte der ACE-Hemmung werden dann graphisch berechnet. Der lC50-Wert ist die Konzentration (in Mol) der getesteten Verbindung, welche die in Abwesenheit der Testsubstanz entstehende Menge des Histidyl-leucins um 50 % herabsetzt.

[2] = tested on: durch Angiotensin I (AI) hervorgerufene Blutdrucksteigerung; assay: Inhibition of the angiotensin I (AI) induced blood pressure rise after intravenous administration of the test compound; format: in vivo, Ratten; settings: for Hemmung der Blutdrucksteigerung nach Angiotensin I-Reizung: 1 mg/kg i.v., anaesthetised male normotensive rats, during 30 min after administration, 333 ng/kg angiotensin I; for % AI Hemmung: rat, mean inhibition within 30 min after administration
Excerpt: Die Verbindungen der Erfindung zeigen nach intravenöser oder oraler Verabreichung eine hemmende Wirkung gegen die durch Angiotensin I hervorgerufene Blutdrucksteigerung auch an normotensiven Ratten. Das Angiotensin 1 wird durch das genannte Umwandlungsenzym zu der stark blutdrucksteigernden Substanz Angiotensin II hydrolysiert. Die Hemmung des genannten Enzyms blockiert die Bildung von Angiotensin II aus Angiotensin I. In dieser Weise wird die durch Angiotensin I provozierte Blutdrucksteigerung abgeschwächt.
Der entsprechende in-vivo-Test mit den intravenös verabreichten Verbindungen wird mit männlichen normotensiven Ratten, welche mit dem Natriumsalz der 5-Äthyl-5-(1-methylpropyl)-2-thiobarbitursäure narkotisiert sind, durchgeführt. Eine femorale Arterie und eine Wadenvene werden mit je einer Hohlnadel für die direkte Messung des Blutdrucks und für die intravenöse Verabreichung des Angiotensins I und einer erfindungsgemäßen Verbindung versehen. Nach der Stabilisierung des basalen Blutdrucks wird die Druckänderung nach drei, in 5-minütigen Intervallen, i. v. durchgeführten Reizungen mit 333 ng/kg Angiotensin I bestimmt. Solche Druckänderungen werden wieder nach 5,10,15, 30 und 60 Minuten nach intravenöser Verabreichung der zu prüfenden Verbindung bestimmt. Die letztgenannten Druckänderungen werden mit den Anfangswerten verglichen. Jede festgestellte Abnahme vom Ansprechen des Blutdrucks ist ein Hinweis auf die Hemmung des Enzyms, welches das Angiotensin I umwandelt. Als Illustration der Erfindung sei auf das « höher schmelzende » 1-Carboxymethyl-3-(1-äthoxycarbonyl-3-phenylpropylamino)-2,3,4,5-tetrahydro-1H-[1] benzazepin-2-on des Beispiels 1 und auf das entsprechende S,S-Enantiomere des Beispiels 12 hingewiesen. Diese hemmen vollständig die Blutdrucksteigerung nach Angiotensin I-Reizung während 30 Minuten nach intravenöser Verabreichung einer Dosis von 1 mg/kg pro Substanz.
In der in vivo Prüfungsmethode wird zuerst durch Verabreichung des Angiotensins I (AI) an das Versuchstier eine Blutdrucksteigerung hervorgerufen. Es wird dann die Hemmung der einzelnen Verbindungen auf diese Blutdrucksteigerung gemessen.
11. Methode der Hemmung der durch Angiotensin I (AI) hervorgerufenen Blutdrucksteigerung, durch intravenöse Verabreichung der Testverbindung (% AI-Hemmung)
In diesen Untersuchungen wird wie oben beschrieben, je ein Katheter in eine femurale Arterie und in eine Wadenvene der Ratte eingeführt.
Der arterielle Druck wurde von dem Arterienkatheter aus registriert, während man Angiotensin I (AI) und die einzelnen Testverbindungen durch den Venenkatheter injiziert hatte. Die Hemmung der durch Angiotensin I verursachten Blutdrucksteigerung ist als prozentuelle Abnahme des vor der Behandlung erhaltenen Kontrollwertes der Blutdrucksteigerung ausgedrückt und in der Tabelle als Durchschnittswert der Hemmung innerhalb 30 Minuten nach Verabreichung der Testsubstanz angegeben. (Siehe Tabelle Seite 41 f.)

[3] = tested on: spontan hypertensiven Ratten; assay: Antihypertensive effect in spontaneously hypertensive rats, indirect measurement of systolic blood pressure (tail cuff), oral dosing; format: in vivo
Excerpt: Die in vivo blutdrucksenkende Wirkung wird entweder direkt mit einem Katheter, der in die femorale Arterie des Versuchstieres eingeführt ist, oder indirekt durch Sphygmomanometrie am Rattenschwanz, und einem Übertragungsinstrument registriert. Der Blutdruck wird vor und nach der Verabreichung des Wirkstoffes in mm Hg bestimmt.
So sind die antihypertensiven Wirkungen in spontan hypertensiven Ratten durch indirekte Messung des systolischen Blutdrucks nachweisbar. Nicht narkotisierte Ratten werden einzeln in Käfigen, welche ihre Bewegung einschränken, in eine leicht geheizte Kammer gebracht. Ein Puls-Sensor wird innerhalb einer aufblasbaren Manschette am Schwanz jeder Ratte angebracht. Die Manschette wird aufgeblasen, um die Schwanz-Arterie zu schließen. Der Druck in der Manschette wird kontinuierlich reduziert, und der systolische Druck entspricht demjenigen Druck in der Manschette, bei welchem die Pulswellen wieder auftreten. Nach der Registrierung von Kontrollwerten des Blutdrucks und der Herzfrequenz werden die Testverbindungen peroral einmal täglich an vier aufeinanderfolgenden Tagen verabreicht. Zusätzliche Blutdruckmessungen werden üblicherweise nach 2,0, 4,0 und 23,5 Stunden nach jeder täglichen Dosis vorgenommen. Die Werte werden mit denjenigen von Ratten, welche lediglich mit der Trägersubstanz behandelt worden sind, verglichen. […]

[4] = rabbit lung tissue preparation, 30 min incubation at 37°, read-out: In vitro ACEI IC50
[5] = ACE from rabbit lung, 30 min at 37 °C, read-out: IC50-Wert

Row | IC50 [1, 4] [nM] | IC50 [1, 5] [nM] | SMILES | % AI Hemmung ([2]; i.v. Dosis 0.1 mg/kg) [%] | % AI Hemmung ([2]; i.v. Dosis 0.03 mg/kg) [%] | other results
1 | 600 | – | CCOC(=O)[C@H](CCc1ccccc1)N[C@H]1CCc2ccccc2N(CC(=O)O)C1=O (racemic) [Beispiel 1, 1-Carboxymethyl-3-(1-äthoxycarbonyl-3-phenylpropylamino)-2,3,4,5-tetrahydro-1H-[1] benzazepin-2-on] | 50 | – | Hemmung der Blutdrucksteigerung nach Angiotensin I-Reizung [2]: vollständig; % AI Hemmung ([2]; i.v. Dosis 1.0 mg/kg): 100%; % AI Hemmung ([2]; i.v. Dosis 10 mg/kg): 100%; Blutdruck gesenkt (antihypertensiver Effekt) ([3]; 3 mg/kg p. o., once daily for four days, average, measured 2 and 4 h after dosing on the last two days): 40 mm Hg
2 | – | 58 | O=C(O)CN1C(=O)C(NC(CCc2ccccc2)C(=O)O)CCc2ccccc21 (single isomer, unassigned) [Beispiel 8, 1-Carboxymethyl-3-(1-carboxy-3-phenylpropylamino)-2,3,4,5-tetrahydro-1H-[1] benzazepin-2-on] | – | – | –
3 | 5 | 5.2 | O=C(O)CN1C(=O)C(NC(CCc2ccccc2)C(=O)O)CCc2ccccc21 (single isomer, unassigned) [Beispiel 9, 1-Carboxymethyl-3-(1-carboxy-3-phenylpropylamino)-2,3,4,5-tetrahydro-1H-[1]-benzazepin-2-on] | 80 | 40 | % AI Hemmung ([2]; i.v. Dosis 0.3 mg/kg): 93%
4 | 400 | – | CCOC(=O)[C@H](CCc1ccccc1)N[C@H]1CCc2ccccc2N(CC(=O)O)C1=O [12 HCl Salz] | 82 | 29 | % AI Hemmung ([2]; i.v. Dosis 0.06 mg/kg): 74%; % AI Hemmung ([2]; i.v. Dosis 0.3 mg/kg): 95%; % AI Hemmung ([2]; i.v. Dosis 1.0 mg/kg): 100%
5 | 200 | – | CCOC(=O)[C@@H](CCc1ccccc1)N[C@H]1CCc2ccccc2N(CC(=O)O)C1=O [Beispiel 5, 1-Carboxymethyl-3-(1-äthoxycarbonyl-3-phenylpropylamino)-2,3,4,5,-tetrahydro-1H-[1] benzazepin-2-on] | 37 | – | –
6 | – | – | CCOC(=O)[C@H](CCc1ccccc1)N[C@H]1CCc2ccccc2N(CC(=O)O)C1=O [Beispiel 12, 1-Carboxymethyl-3S-(1S-äthoxycarbonyl-3-phenylpropylamino)-2,3,4,5-tetrahydro-1H-[1] benzazepin-2-on] | – | – | Hemmung der Blutdrucksteigerung nach Angiotensin I-Reizung [2]: vollständig; Blutdruck gesenkt (antihypertensiver Effekt) ([3]; peroral dose of 1 mg/kg): 30 mm Hg
7 | 2 | 1.7 | O=C(O)CN1C(=O)[C@@H](N[C@@H](CCc2ccccc2)C(=O)O)CCc2ccccc21 [Beispiel 19, 1-Carboxymethyl-3S-(1S-carboxy-3-phenylpropylamino)-2,3,4,5-tetrahydro-1H-[1] benzazepin-2-on] | 93 | 70 | % AI Hemmung ([2]; i.v. Dosis 0.007 mg/kg): 14%; % AI Hemmung ([2]; i.v. Dosis 0.01 mg/kg): 28%; % AI Hemmung ([2]; i.v. Dosis 0.02 mg/kg): 69%; % AI Hemmung ([2]; i.v. Dosis 0.06 mg/kg): 84%
